# Experiments:
# Type in all cases: in vivo
# [1] = system: velvetleaf (Abutilon theophrasti); test: Test A pre-/postemergence: velvetleaf; conditions: for Velvetleaf plant response rating: Postemergence; for Plant response rating, Velvetleaf: Preemergence
# Procedure, shortened: (§1)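 Soil medium was loam blended with sand; treatments pre- and postemergence were applied concurrently, postemergence at one- to two-leaf stage. Approximately ten days in greenhouse preceded visual comparison with untreated controls, scored 0 (no effect) to 100 (complete control).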
# [2] = system: ducksalad (Heteranthera limosa); test: Test C flooded paddy test: ducksalad; conditions: scale 0 to 100 (0 no effect, 100 complete control)
# Procedure, shortened: (§2)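 Greenhouse plants treated at the 2-leaf stage by dosing the flood water (3 cm depth, maintained) were compared with controls after 13 to 15 days and rated 0 to 100, where 100 means complete control; a dash marks no test result.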
# [3] = system: wheat (Triticum aestivum); test: Test A pre-/postemergence: wheat; conditions: for Wheat plant response rating: Postemergence; for Plant response rating, Wheat: Preemergence
# Procedure, shortened: as §1
# rice (Oryza sativa) = test: Test C flooded paddy test: rice; conditions: scale 0 to 100 (0 no effect, 100 complete control)
# Procedure, shortened: as §2
# [4] = system: pigweed (Amaranthus retroflexus); test: Test A pre-/postemergence: pigweed; conditions: for Pigweed plant response rating: Postemergence; for Plant response rating, Pigweed: Preemergence
# Procedure, shortened: as §1
# [5] = system: morningglory (Ipomoea spp.); test: Test A pre-/postemergence: morningglory; conditions: for Morningglory plant response rating: Postemergence; for Plant response rating, Morningglory: Preemergence
# Procedure, shortened: as §1
# [6] = system: barnyardgrass (Echinochloa crus-galli); test: Test C flooded paddy test: barnyardgrass; conditions: scale 0 to 100 (0 no effect, 100 complete control)
# Procedure, shortened: as §2
# [7] = system: foxtail, giant (giant foxtail, Setaria faberii); test: Test A pre-/postemergence: foxtail, giant; conditions: for Foxtail, Giant plant response rating: Postemergence; for Plant response rating, Foxtail, Giant: Preemergence
# Procedure, shortened: as §1
# corn (Zea mays) = test: Test A pre-/postemergence: corn; conditions: for Corn plant response rating: Postemergence; for Plant response rating, Corn: Preemergence
# Procedure, shortened: as §1
# [8] = system: crabgrass, large (large crabgrass, Digitaria sanguinalis); test: Test A pre-/postemergence: crabgrass, large; conditions: for Crabgrass, Large plant response rating: Postemergence; for Plant response rating, Crabgrass, Large: Preemergence
# Procedure, shortened: as §1
# [9] = system: sedge, umbrella (small-flower umbrella sedge, Cyperus difformis); test: Test C flooded paddy test: sedge, umbrella; conditions: scale 0 to 100 (0 no effect, 100 complete control)
# Procedure, shortened: as §2
# [10] = system: barnyardgrass (Echinochloa crus-galli); test: Test A pre-/postemergence: barnyardgrass; conditions: for Barnyardgrass plant response rating: Postemergence; for Plant response rating, Barnyardgrass: Preemergence
# Procedure, shortened: as §1
# [11] = 125 g ai/ha, 0 to 100 scale, 0 is no effect, 100 is complete control
# [12] = 500 g ai/ha, visual rating on 0 to 100 scale (0 no effect, 100 complete control), approximately ten days
# [13] = 125 g ai/ha, 0 to 100 scale (0 no effect, 100 complete control)
# [14] = 500 g ai/ha, 0 to 100 scale, 0 is no effect, 100 is complete control
# [15] = Flood (flooded paddy test), 62 g ai/ha, visual rating after 13 to 15 days
# [16] = Flood (flooded paddy test), 250 g ai/ha, visual rating after 13 to 15 days
# [17] = 125 g ai/ha, 0 to 100 scale where 0 is no effect and 100 is complete control
# [18] = Flood (flooded paddy test), 125 g ai/ha, visual rating after 13 to 15 days
smiles,measurement,setting,value
Cc1nn(-c2ccc(Cl)cc2)nc1C(=O)c1cccc(C(F)(F)F)c1 [Compound 42],Velvetleaf plant response rating,[1]; [11],10
same,Velvetleaf plant response rating,[1]; [12],20
same,"Plant response rating, Velvetleaf",[1]; [13],0
same,"Plant response rating, Velvetleaf",[1]; [14],0
same,"Plant response rating, Ducksalad",[2]; [15],0
same,"Plant response rating, Ducksalad",[2]; [16],0
same,Wheat plant response rating,[3]; [11],0
same,Wheat plant response rating,[3]; [12],10
same,"Plant response rating, Wheat",[3]; [13],0
same,"Plant response rating, Wheat",[3]; [14],0
same,"Plant response rating, Rice",rice (Oryza sativa); [15],0
same,"Plant response rating, Rice",rice (Oryza sativa); [16],0
same,Pigweed plant response rating,[4]; [11],50
same,Pigweed plant response rating,[4]; [12],90
same,"Plant response rating, Pigweed",[4]; [13],10
same,"Plant response rating, Pigweed",[4]; [14],60
same,Morningglory plant response rating,[5]; [11],10
same,Morningglory plant response rating,[5]; [12],50
same,"Plant response rating, Morningglory",[5]; [13],0
same,"Plant response rating, Morningglory",[5]; [14],10
same,"Plant response rating, Barnyardgrass",[6]; [15],0
same,"Plant response rating, Barnyardgrass",[6]; [16],0
same,"Foxtail, Giant plant response rating",[7]; [11],10
same,"Foxtail, Giant plant response rating",[7]; [12],20
same,"Plant response rating, Foxtail, Giant",[7]; [13],10
same,"Plant response rating, Foxtail, Giant",[7]; [14],70
same,Corn plant response rating,corn (Zea mays); [11],10
same,Corn plant response rating,corn (Zea mays); [12],10
same,"Plant response rating, Corn",corn (Zea mays); [13],0
same,"Plant response rating, Corn",corn (Zea mays); [14],0
same,"Crabgrass, Large plant response rating",[8]; [11],10
same,"Crabgrass, Large plant response rating",[8]; [12],30
same,"Plant response rating, Crabgrass, Large",[8]; [13],10
same,"Plant response rating, Crabgrass, Large",[8]; [14],50
same,"Plant response rating, Sedge, Umbrella",[9]; [15],0
same,"Plant response rating, Sedge, Umbrella",[9]; [16],0
same,Barnyardgrass plant response rating,[10]; [11],0
same,Barnyardgrass plant response rating,[10]; [12],10
same,"Plant response rating, Barnyardgrass",[10]; [13],0
same,"Plant response rating, Barnyardgrass",[10]; [14],10
Cc1nn(-c2ccc(Br)cc2)nc1C(=O)c1cccc(C(F)(F)F)c1 [Compound 92],Velvetleaf plant response rating,[1]; [11],20
same,Velvetleaf plant response rating,[1]; [12],20
same,"Plant response rating, Velvetleaf",[1]; [17],0
same,"Plant response rating, Velvetleaf",[1]; [14],0
same,"Plant response rating, Ducksalad",[2]; [18],0
same,"Plant response rating, Ducksalad",[2]; [16],0
same,"Plant response rating, Ducksalad","[2]; Flood, 31 g ai/ha",0
same,"Plant response rating, Ducksalad","[2]; Flood, 62 g ai/ha",0
same,Wheat plant response rating,[3]; [11],0
same,Wheat plant response rating,[3]; [12],10
same,"Plant response rating, Wheat",[3]; [17],0
same,"Plant response rating, Wheat",[3]; [14],0
same,"Plant response rating, Rice",rice (Oryza sativa); [18],0
same,"Plant response rating, Rice",rice (Oryza sativa); [16],0
same,"Plant response rating, Rice","rice (Oryza sativa); Flood, 31 g ai/ha",0
same,"Plant response rating, Rice","rice (Oryza sativa); Flood, 62 g ai/ha",0
same,Pigweed plant response rating,[4]; [11],30
same,Pigweed plant response rating,[4]; [12],90
same,"Plant response rating, Pigweed",[4]; [17],0
same,"Plant response rating, Pigweed",[4]; [14],10
same,Morningglory plant response rating,[5]; [11],10
same,Morningglory plant response rating,[5]; [12],30
same,"Plant response rating, Morningglory",[5]; [17],0
same,"Plant response rating, Morningglory",[5]; [14],0
same,"Plant response rating, Barnyardgrass",[6]; [18],0
same,"Plant response rating, Barnyardgrass",[6]; [16],0
same,"Plant response rating, Barnyardgrass","[6]; Flood, 31 g ai/ha",0
same,"Plant response rating, Barnyardgrass","[6]; Flood, 62 g ai/ha",0
same,"Foxtail, Giant plant response rating",[7]; [11],10
same,"Foxtail, Giant plant response rating",[7]; [12],20
same,"Plant response rating, Foxtail, Giant",[7]; [17],10
same,"Plant response rating, Foxtail, Giant",[7]; [14],20
same,Corn plant response rating,corn (Zea mays); [11],10
same,Corn plant response rating,corn (Zea mays); [12],10
same,"Plant response rating, Corn",corn (Zea mays); [13],0
same,"Plant response rating, Corn",corn (Zea mays); [14],0
same,"Crabgrass, Large plant response rating",[8]; [11],10
same,"Crabgrass, Large plant response rating",[8]; [12],30
same,"Plant response rating, Crabgrass, Large",[8]; [13],10
same,"Plant response rating, Crabgrass, Large",[8]; [14],40
same,"Plant response rating, Sedge, Umbrella",[9]; [18],0
same,"Plant response rating, Sedge, Umbrella",[9]; [16],0
same,"Plant response rating, Sedge, Umbrella","[9]; Flood, 31 g ai/ha",0
same,"Plant response rating, Sedge, Umbrella","[9]; Flood, 62 g ai/ha",0
same,Barnyardgrass plant response rating,[10]; [11],0
same,Barnyardgrass plant response rating,[10]; [12],10
same,"Plant response rating, Barnyardgrass",[10]; [13],0
same,"Plant response rating, Barnyardgrass",[10]; [14],0
Cc1nn(-c2ccc(C(F)(F)F)cc2)nc1Oc1ccc(C(F)(F)F)cc1 [Compound 83],Velvetleaf plant response rating,[1]; [11],0
same,Velvetleaf plant response rating,[1]; [12],0
same,"Plant response rating, Velvetleaf",[1]; [13],0
same,"Plant response rating, Velvetleaf",[1]; [14],0
same,"Plant response rating, Ducksalad",[2]; [18],20
same,"Plant response rating, Ducksalad",[2]; [16],30
same,"Plant response rating, Ducksalad","[2]; Flood, 31 g ai/ha",0
same,"Plant response rating, Ducksalad","[2]; Flood, 62 g ai/ha",20
same,Wheat plant response rating,[3]; [11],0
same,Wheat plant response rating,[3]; [12],0
same,"Plant response rating, Wheat",[3]; [13],0
same,"Plant response rating, Wheat",[3]; [14],0
same,"Plant response rating, Rice",rice (Oryza sativa); [18],20
same,"Plant response rating, Rice",rice (Oryza sativa); [16],25
same,"Plant response rating, Rice","rice (Oryza sativa); Flood, 31 g ai/ha",10
same,"Plant response rating, Rice","rice (Oryza sativa); Flood, 62 g ai/ha",20
same,Pigweed plant response rating,[4]; [11],0
same,Pigweed plant response rating,[4]; [12],0
same,"Plant response rating, Pigweed",[4]; [13],0
same,"Plant response rating, Pigweed",[4]; [14],0
same,Morningglory plant response rating,[5]; [11],0
same,Morningglory plant response rating,[5]; [12],0
same,"Plant response rating, Morningglory",[5]; [13],0
same,"Plant response rating, Morningglory",[5]; [14],0
same,"Plant response rating, Barnyardgrass",[6]; [18],0
same,"Plant response rating, Barnyardgrass",[6]; [16],0
same,"Plant response rating, Barnyardgrass","[6]; Flood, 31 g ai/ha",0
same,"Plant response rating, Barnyardgrass","[6]; Flood, 62 g ai/ha",0
same,"Foxtail, Giant plant response rating",[7]; [11],0
same,"Foxtail, Giant plant response rating",[7]; [12],0
same,"Plant response rating, Foxtail, Giant",[7]; [13],0
same,"Plant response rating, Foxtail, Giant",[7]; [14],0
same,Corn plant response rating,corn (Zea mays); [11],0
same,Corn plant response rating,corn (Zea mays); [12],0
same,"Plant response rating, Corn",corn (Zea mays); [13],0
same,"Plant response rating, Corn",corn (Zea mays); [14],0
same,"Crabgrass, Large plant response rating",[8]; [11],0
same,"Crabgrass, Large plant response rating",[8]; [12],0
same,"Plant response rating, Crabgrass, Large",[8]; [13],0
same,"Plant response rating, Crabgrass, Large",[8]; [14],0
same,"Plant response rating, Sedge, Umbrella",[9]; [18],20
same,"Plant response rating, Sedge, Umbrella",[9]; [16],30
same,"Plant response rating, Sedge, Umbrella","[9]; Flood, 31 g ai/ha",10
same,"Plant response rating, Sedge, Umbrella","[9]; Flood, 62 g ai/ha",20
same,Barnyardgrass plant response rating,[10]; [11],0
same,Barnyardgrass plant response rating,[10]; [12],0
same,"Plant response rating, Barnyardgrass",[10]; [13],0
same,"Plant response rating, Barnyardgrass",[10]; [14],0
Cc1nn(-c2ccc(C(F)(F)F)cc2)nc1Cc1cnn(CC(F)(F)F)c1 [Compound 51],Velvetleaf plant response rating,[1]; [11],0
same,Velvetleaf plant response rating,[1]; [12],10
same,"Plant response rating, Velvetleaf",[1]; [13],0
same,"Plant response rating, Velvetleaf",[1]; [14],0
same,"Plant response rating, Ducksalad",[2]; [15],0
same,"Plant response rating, Ducksalad",[2]; [16],0
same,Wheat plant response rating,[3]; [11],0
same,Wheat plant response rating,[3]; [12],0
same,"Plant response rating, Wheat",[3]; [13],0
same,"Plant response rating, Wheat",[3]; [14],0
same,"Plant response rating, Rice",rice (Oryza sativa); [15],0
same,"Plant response rating, Rice",rice (Oryza sativa); [16],0
same,Pigweed plant response rating,[4]; [11],10
same,Pigweed plant response rating,[4]; [12],60
same,"Plant response rating, Pigweed",[4]; [13],0
same,"Plant response rating, Pigweed",[4]; [14],0
same,Morningglory plant response rating,[5]; [11],0
same,Morningglory plant response rating,[5]; [12],10
same,"Plant response rating, Morningglory",[5]; [13],0
same,"Plant response rating, Morningglory",[5]; [14],0
same,"Plant response rating, Barnyardgrass",[6]; [15],0
same,"Plant response rating, Barnyardgrass",[6]; [16],0
same,"Foxtail, Giant plant response rating",[7]; [11],0
same,"Foxtail, Giant plant response rating",[7]; [12],10
same,"Plant response rating, Foxtail, Giant",[7]; [13],0
same,"Plant response rating, Foxtail, Giant",[7]; [14],10
same,Corn plant response rating,corn (Zea mays); [11],0
same,Corn plant response rating,corn (Zea mays); [12],10
same,"Plant response rating, Corn",corn (Zea mays); [13],0
same,"Plant response rating, Corn",corn (Zea mays); [14],0
same,"Crabgrass, Large plant response rating",[8]; [11],0
same,"Crabgrass, Large plant response rating",[8]; [12],10
same,"Plant response rating, Crabgrass, Large",[8]; [13],0
same,"Plant response rating, Crabgrass, Large",[8]; [14],0
same,"Plant response rating, Sedge, Umbrella",[9]; [15],0
same,"Plant response rating, Sedge, Umbrella",[9]; [16],0
same,Barnyardgrass plant response rating,[10]; [11],0
same,Barnyardgrass plant response rating,[10]; [12],10
same,"Plant response rating, Barnyardgrass",[10]; [13],0
same,"Plant response rating, Barnyardgrass",[10]; [14],0

# Source: patent US9302999B2, “Substituted triazoles as herbicides” (E. I. DU PONT DE NEMOURS AND COMPANY, priority 2012, dated 2016)
